pIC50: −log10 of the molar value. Where a name gives a salt, the structure may show the parent alone. Read-outs that look alike come from different tables or passages of the source.
How the values were obtained:
PRMT5/MEP50 = target: T1, PRMT5/MEP50 (Homo sapiens, UniProt O14744); assay: PRMT5 enzymatic activity inhibition experiment (AlphaScreen); assay type: biochemical
T1 construct: purchased BPS Bioscience Inc. (USA)
Excerpt: Materials: PRMT5/MEP50 proteins were purchased from BPS Bioscience Inc. (USA); Histone H4 Peptide substrate was purchased from Sangon Biotech (Shanghai) Co., Ltd.; Anti-Histone H4 (symmetric dimethyl R3) antibody—ChIP Grade was purchased from Abcam PLC. (USA); S-(5′-Adenosyl)-L-methionine chloride dihydrochloride was purchased from Sigma PLC. (USA); 384-well plate, AlphaScreen Streptavidin Donor beads, AlphaScreen Protein A Acceptor beads, and Envision 2104 multi-label Reader were purchased from Perkin-Elmer Instruments (USA) Corporation; and Echo 550 Liquid Handler was purchased from Labcyte Inc. (USA).
Enzymatic activity assay: The compounds were added into a 384-well plate by using the Echo 550 Liquid Handler with the final concentration of 0-1000 nM (initial concentration: 1000 nM, 3-fold dilution, for 10 points), and the DMSO content was 0.5%. 10 μL of a 2× PRMT5/MEP50 solution was added into each well and incubated at room temperature for 30 minutes. 10 μL of 2× PRMT5/MEP50 substrate solution was added to each well to start the reaction and incubated at room temperature for 60 minutes. A 6× detection reagent containing AlphaScreen Protein A Acceptor beads and Anti-Histone H4 (symmetric dimethyl R3) antibodies was prepared and 5 μL was added to each well. The plate was incubated at room temperature for 60 minutes. A 6× detection reagent containing AlphaScreen Streptavidin Donor beads was prepared and 5 μL was added to each well. The plate was incubated at room temperature for 60 minutes. The signal values were detected by using the Envision.

Z-138 cells = assay: Inhibitory activity on tumor cell proliferation (Cell-Titer Glo, 8 days); assay type: cell-based; conditions: Homo sapiens, 192 h, read-out: Inhibition of cell proliferation Z-138 IC50
Protocol: Materials and cells: Z-138 cells were purchased from ATCC (USA); IMDM medium and penicillin-streptomycin were purchased from Sigma PLC. (USA); horse serum was purchased from Hyclone (USA); 96-well plate was purchased from Corning (USA); and Cell-Titer Glo reagent was purchased from Promega (USA).
(§1) Cell culture: Z-138 cells were cultured in an IMDM culture solution containing 10% Horse serum+1% penicillin−streptomycin at 37° C., 5% CO2. Cells in logarithmic growth phase were suitable for the experiment.
Detection of cell proliferation activity: The inhibitory activities of the compounds on the proliferation of Z-138 cells were detected by using the Cell-Titer Glo reagent. The concentrations of the cells were adjusted, and 180 μL was inoculated in each well of the 96-well plate (500/well) and equilibrated for 10-15 minutes at 37° C., 5% CO2. 20 μL of a culture solution containing the compounds was added into each well with the final concentration reaching 0-300 nM (initial concentration: 300 nM, 3-fold dilution, for 10 points), and the DMSO content was 0.1%. The cell plate was placed at 37° C., 5% CO2 and incubated for 8 days. Culture solution was replaced at day 4: 100 μL of the supernatant was slowly aspirated and 100 μL of a fresh culture solution containing the compounds was provided as a supplement while the concentrations of the compounds were held constant. The cell viability was detected by using the Cell-Titer Glo reagent.

SDMA in Z-138 cells = assay: Inhibitory activity on SDMA in cells (immunofluorescent assay); assay type: cell-based; conditions: Homo sapiens, 48 h, 2 days, read-out: Inhibition of SDMA in cells IC50
Excerpt: Materials and cells: Z-138 cells were purchased from ATCC (USA); IMDM medium and penicillin-streptomycin were purchased from Sigma PLC. (USA); horse serum was purchased from Hyclone (USA); Hoechst antibodies were purchased from Invitrogen (USA); Alexa Fluor 488 goat anti-rabbit IgG antibodies were purchased from Invitrogen (USA); Anti-dimethyl-Arginine symmetric (SYM11) antibodies were purchased from Merck & Co., Inc. (USA); DPBS was purchased from Gibco (USA); Nonfat Dry milk was purchased from Cell Signaling Technology (USA); paraformaldehyde was purchased from Beijing Solarbio Science & Technology Co., Ltd.; 384-well plate and Echo 550 Liquid Handler were purchased from Labcyte Inc. (USA); and an ImageXpress Nano was purchased from Molecular Devices (USA).
as §1
Immunofluorescent assay: The effects of the compounds on SDMA in Z-138 cells were detected by using immunofluorescence. The cells were adjusted to the concentration of 1*10^5/mL and 40 μL was inoculated in each well of the 384-well plate (4000/well) and equilibrated for 10-15 minutes at 37° C., 5% CO2. The compound was added into a 384-well plate by using the Echo 550 Liquid Handler with the final concentration of 0-300 nM (initial concentration: 300 nM, 3-fold dilution, for 10 points), and the DMSO content was 0.1%. The cell plate was placed at 37° C., 5% CO2 and incubated for 2 days. 40 μL of 8% paraformaldehyde was added into each well and incubated at room temperature for 30 minutes. The supernatant was discarded, the plate was washed with DPBS, and 40 μL of 0.5% PBST (phosphate buffer with Tween) was added into each well and incubated at room temperature for 60 minutes. The supernatant was discarded, the plate was washed with 0.05% PBST, and 40 μL of a blocking solution (1% Nonfat milk in 0.05% PBST) was added into each well and incubated at room temperature for 60 minutes. The supernatant was discarded, and 20 μL of the primary antibody (SYM11, diluted with a blocking solution at 1:500) was added into each well and maintained at 4° C. overnight. The supernatant was discarded, the plate was washed with 0.05% PBST, 20 μL of the secondary antibody (Alexa Fluor 488 goat anti-rabbit and Hoechst, diluted with a blocking solution at 1:1000 and 1:5000, respectively) was added to each well and incubated at room temperature for 60 minutes. The supernatant was discarded, the plate was washed with 0.05% PBST, and the fluorescent intensity was detected with ImageXpress Nano.

[1] = Hepatocellular metabolic stability test, human hepatocytes
Excerpt: (§2) Experimental materials: Human hepatocytes were purchased from Biopredic; mouse hepatocytes were purchased from BioIVT; acetonitrile and methanol were purchased from Merck & Co., Inc.; AOPI dyes were purchased from Nexcelom; dexamethasone was purchased from NIFDC; DMSO was purchased from Beijing Solarbio Science & Technology Co., Ltd.; DPBS (10×), GlutaMAX™-1 (100×) and recombinant human insulin were purchased form Gibco by Life Technologies; fetal bovine serum was purchased from Corning; formic acid was purchased from DIKMAPURE; Isotonic Percoll was purchased from GE Healthcare; alprazolam was purchased from Supelco; caffeine was purchased from ChromaDex.inc; and HEPES, tolbutamide and Williams' Medium E were purchased from Sigma.
(§3) The powder of a test substance was formulated with DMSO into a stock solution with a high concentration, which was diluted to a working solution of 100 μM with acetonitrile prior to use. The final concentration of the test substance was 1 μM.
(§4) 49.5 mL of Williams'E Medium and 0.5 mL of GlutaMAX were mixed as an incubation media. Hepatocyte thawing media and incubation media were placed in a 37° C. water-bath and pre-heated for at least 15 minutes prior to use. A tube of hepatocytes stored at an ultra-low temperature was taken and the hepatocytes were ensured to be at a frozen state at a low temperature prior to thawing. The hepatocytes were rapidly placed in a 37° C. water-bath and gently shaken until all the ice crystals were dispersed, and then after 70% ethanol was sprayed, the hepatocytes were transferred to a biosafety cabinet. The content of the tube was poured into a centrifugal tube containing 50 mL of thawing media and centrifuged at 100 g for 10 minutes. After centrifugation, the thawing media was aspirated, and a sufficient amount of incubation media was added to obtain a cell suspension with a cell density of about 1.5×10^6 cells/mL. The hepatocytes were counted, and the viable cell density was determined using Cellometer Vision, and the survival rate of the hepatocytes must be higher than 75%. The hepatocyte suspension was diluted by using the incubation media to a viable cell density of 0.5×10^6 viable cells/mL.
(§5) 247.5 μL of viable cell (human hepatocytes or mouse hepatocytes) suspension or media were transferred into a 96-well deep-well plate, and the deep-well plate was placed in a vortex incubator and pre-heated for 10 minutes. Incubation of all the samples was performed in parallel duplicate. Test substance (2.5 μL, 100 μM) was added into each well to start the reaction and the deep-well plate was placed in the vortex incubator again. The samples were incubated, and 25 μL of the suspension was taken at 0, 15, 30, 60, 90 and 120 minutes, respectively. 125 μL of acetonitrile containing internal standard (100 nM alprazolam, 200 nM caffeine, and 100 nM tolbutamide) was added to terminate the reaction. The mixture was vortexed for 10 minutes and centrifuged at 3220 g, 4° C. for 30 minutes. After centrifugation, 100 μL of the supernatant was transferred into the loading plate and 150 μL of pure water was added and mixed uniformly for LC-MS/MS analysis.
(§6) All the data calculation was performed by the Microsoft Excel software. The peak area was detected by extracting the ion chromatogram. The in vitro half-life (t1/2) of the parent drug was detected by performing linear fitting of the natural logarithm of elimination percent of the parent drug and time.
(§7) The in vitro half-life (t1/2) was calculated by means of the slope:

[2] = Hepatocellular metabolic stability test, mouse hepatocytes
Excerpt: as §2, §3, §4, §5, §6, §7

in vitro [3] = conditions: human, hepatocytes
Excerpt: as §2, §3, §4, §5, §6, §7

in vitro [4] = conditions: mouse, hepatocytes
Excerpt: as §2, §3, §4, §5, §6, §7

[5] = PRMT5/MEP50, Histone H4 peptide substrate, read-out: Inhibition of enzymatic activity IC50

T1 sequence (O14744 2-637 limits assumed): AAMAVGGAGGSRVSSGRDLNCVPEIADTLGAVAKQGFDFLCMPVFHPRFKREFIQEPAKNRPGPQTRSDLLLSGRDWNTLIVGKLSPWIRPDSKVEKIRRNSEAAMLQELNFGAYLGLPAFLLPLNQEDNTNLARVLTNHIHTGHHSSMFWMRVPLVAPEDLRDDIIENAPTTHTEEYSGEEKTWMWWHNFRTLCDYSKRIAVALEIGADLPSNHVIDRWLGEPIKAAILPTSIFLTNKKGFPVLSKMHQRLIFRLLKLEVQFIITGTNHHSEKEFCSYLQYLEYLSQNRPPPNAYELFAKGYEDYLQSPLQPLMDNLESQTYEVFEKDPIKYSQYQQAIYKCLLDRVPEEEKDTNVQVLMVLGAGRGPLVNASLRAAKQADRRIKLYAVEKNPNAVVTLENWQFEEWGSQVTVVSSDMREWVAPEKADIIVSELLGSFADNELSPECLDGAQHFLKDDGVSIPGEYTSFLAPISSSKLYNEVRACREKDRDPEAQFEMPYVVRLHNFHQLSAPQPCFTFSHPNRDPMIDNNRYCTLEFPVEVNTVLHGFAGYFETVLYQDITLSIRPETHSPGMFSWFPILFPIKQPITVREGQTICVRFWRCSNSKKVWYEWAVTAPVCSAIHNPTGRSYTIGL
T1 sequence (Q9BQA1 2-342 partner limits assumed): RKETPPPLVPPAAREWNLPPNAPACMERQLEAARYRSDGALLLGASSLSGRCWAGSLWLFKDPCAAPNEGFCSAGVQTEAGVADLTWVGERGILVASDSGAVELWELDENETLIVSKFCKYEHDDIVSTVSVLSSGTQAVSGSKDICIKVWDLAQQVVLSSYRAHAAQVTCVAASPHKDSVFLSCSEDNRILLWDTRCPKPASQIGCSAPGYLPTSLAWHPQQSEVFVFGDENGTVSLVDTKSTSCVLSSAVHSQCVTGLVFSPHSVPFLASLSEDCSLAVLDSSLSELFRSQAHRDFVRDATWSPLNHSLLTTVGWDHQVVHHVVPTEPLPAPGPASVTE

| Structure (SMILES) | pIC50 (PRMT5/MEP50) | pIC50 (Z-138 cells) | pIC50 (SDMA in Z-138 cells) | half-life at 1 μM [1] [h] | half-life at 1 μM [2] [h] | pIC50 (PRMT5/MEP50; [5]) | half-life at 1 μM (in vitro [3]) [h] | half-life at 1 μM (in vitro [4]) [h] |
| --- | --- | --- | --- | --- | --- | --- | --- | --- |
| CCN1CCN(C[C@@H](O)[C@@H]2Cc3ccccc3CN2)C(=O)c2ccc(C(=O)N3C4CCC3COC4)cc21.Cl [Compound 001, 8-(3-oxa-8-azabicyclo[3.2.1]octane-8-carbonyl)-1-ethyl-4-((R)-2-hydroxy-2-((S)-1,2,3,4-tetrahydroisoquinolin-3-yl)ethyl)-1,2,3,4-tetrahydro-5H-benzo[e][1,4]diazepin-5-one hydrochloride] | 8.34 | 8.46 | 8.42 | 24.5 | 2.04 | – | – | – |
| CCN1CCN(C[C@@H](O)[C@@H]2Cc3ccccc3CN2)C(=O)c2ccc(C(=O)N3CCC4(CC3)CC(C#N)C4)cc21 [Compound 003, 7-(1-ethyl-4-((R)-2-hydroxy-2-((S)-1,2,3,4-tetrahydroisoquinolin-3-yl)ethyl)-5-oxo-2,3,4,5-tetrahydro-1H-benzo[e][1,4]diazepine-8-carbonyl)-7-azaspiro[3.5]nonane-2-carbonitrile] | – | 8.92 | 9.10 | – | – | 8.69 | 131 | 1.97 |
| CCN1CCN(C[C@@H](O)[C@@H]2Cc3ccccc3CN2)C(=O)c2ccc(C(=O)N3C4CCC3CC(OC)C4)cc21.Cl (stereo partly drawn) [Compound 004, 1-ethyl-4-((R)-2-hydroxy-2-((S)-1,2,3,4-tetrahydroisoquinolin-3-yl)ethyl)-8-(3-methoxy-8-azabicyclo[3.2.1]octane-8-carbonyl)-1,2,3,4-tetrahydro-5H-benzo[e][1,4]diazepin-5-one hydrochloride] | 8.34 | 8.73 | 8.85 | 11.2 | 0.871 | – | – | – |
| COC1CC2CCC(C1)N2C(=O)c1ccc2c(c1)N(C)CCN(C[C@@H](O)[C@@H]1Cc3ccccc3CN1)C2=O.Cl (stereo partly drawn) [Compound 005, 4-((R)-2-hydroxy-2-((S)-1,2,3,4-tetrahydroisoquinolin-3-yl)ethyl)-8-(3-methoxy-8-azabicyclo[3.2.1]octane-8-carbonyl)-1-methyl-1,2,3,4-tetrahydro-5H-benzo[e][1,4]diazepin-5-one hydrochloride] | 8.17 | 8.37 | 8.82 | 5.61 | 1.3 | – | – | – |
| CCN1CCN(C[C@@H](O)[C@@H]2Cc3ccccc3CN2)C(=O)c2ccc(C(=O)N3CCC4(CCC(OC)CC4)CC3)cc21 [Compound 006, 1-ethyl-4-((R)-2-hydroxy-2-((S)-1,2,3,4-tetrahydroisoquinolin-3-yl)ethyl)-8-(9-methoxy-3-azaspiro[5.5]undecane-3-carbonyl)-1,2,3,4-tetrahydro-5H-benzo[e][1,4]diazepin-5-one hydrochloride] | – | 8.32 | 8.74 | – | – | 8.44 | – | – |
| O=C1c2ccc(C(=O)N3C4CCC3COC4)cc2OCCN1C[C@@H](O)[C@@H]1Cc2ccccc2CN1 [Compound 007, 8-(3-oxa-8-azabicyclo[3.2.1]octane-8-carbonyl)-4-((R)-2-hydroxy-2-((S)-1,2,3,4-tetrahydroisoquinolin-3-yl)ethyl)-3,4-dihydrobenzo[f][1,4]oxazepin-5(2H)-one] | – | 8.12 | – | – | – | 8.12 | – | – |
| COC1CC2CCC(C1)N2C(=O)c1ccc2c(c1)OCCN(C[C@@H](O)[C@@H]1Cc3ccccc3CN1)C2=O (stereo partly drawn) [Compound 008, 4-((R)-2-hydroxy-2-((S)-1,2,3,4-tetrahydroisoquinolin-3-yl)ethyl)-8-(3-methoxy-8-azabicyclo[3.2.1]octane-8-carbonyl)-3,4-dihydrobenzo[f][1,4]oxazepin-5(2H)-one] | – | 8.22 | – | – | – | 7.91 | – | – |
| COC1CC2(CCN(C(=O)c3ccc4c(c3)OCCN(C[C@@H](O)[C@@H]3Cc5ccccc5CN3)C4=O)CC2)C1 [Compound 009, 4-((R)-2-hydroxy-2-((S)-1,2,3,4-tetrahydroisoquinolin-3-yl)ethyl)-8-(2-methoxy-7-azaspiro[3.5]nonane-7-carbonyl)-3,4-dihydrobenzo[f][1,4]oxazepin-5(2H)-one] | – | 8.53 | 8.21 | – | – | 8.30 | – | – |
| CCN1CCN(C[C@@H](O)[C@@H]2Cc3ccccc3CN2)C(=O)c2ccc(C(=O)N3CCC4(CC3)CC(O)C4)cc21 [Compound 024, 1-ethyl-4-((R)-2-hydroxy-2-((S)-1,2,3,4-tetrahydroisoquinolin-3-yl)ethyl)-8-(2-hydroxy-7-azaspiro[3.5]nonane-7-carbonyl)-1,2,3,4-tetrahydro-5H-benzo[e][1,4]diazepin-5-one] | – | 7.97 | – | – | – | – | 12.9 | 0.588 |

Source: patent publication US20230250108A1, “TETRAHYDROISOQUINOLINE COMPOUNDS AND USE THEREOF” (JIANGSU SIMCERE PHARMACEUTICAL CO., LTD., priority 2020, published 2023)
